These are literature values, as cited in patent US20200197494A1, “PEPTIDE COMPOSITIONS AND METHODS OF USE” (Dauntless Pharmaceuticals, priority 2017, published 2020).

The conditions of this series: subcutaneous administration; background statement.

As for `C[C@@H](O)[C@@H]1NC(=O)[C@H](CCCCN)NC(=O)[C@@H](Cc2c[nH]c3ccccc23)NC(=O)[C@H](Cc2ccccc2)NC(=O)[C@@H](NC(=O)[C@H](N)Cc2ccccc2)CSSC[C@@H](C(=O)N[C@H](CO)[C@@H](C)O)NC1=O` [octreotide, D-phenylalanyl-L-cysteinyl-L-phenylalanyl-D-tryptophyl-L-lysyl-L-threonyl-N-[2-hydroxy-1-(hydroxymethyl)propyl]-L-Cysteinamide, cyclic (2→7)-disulfide], the “peptide present in the blood stream (bioavailability)” value is around 100%.
